Experimental data published in ChEMBL document CHEMBL4418299, “Compounds useful as csf1 modulators” (2016).

molecular target: Macrophage colony-stimulating factor 1 receptor (Homo sapiens, UniProt P07333); assay: Displacement of kinase tracer 236 from recombinant human His-tagged CSF1R cytoplasmic domain (538 to 910 residues) expressed in baculovirus-infected insect cells measured after 5 hrs by TR-FRET based LanthaScreen assay
Sequence (P07333 whole entry, the tested form may be a part): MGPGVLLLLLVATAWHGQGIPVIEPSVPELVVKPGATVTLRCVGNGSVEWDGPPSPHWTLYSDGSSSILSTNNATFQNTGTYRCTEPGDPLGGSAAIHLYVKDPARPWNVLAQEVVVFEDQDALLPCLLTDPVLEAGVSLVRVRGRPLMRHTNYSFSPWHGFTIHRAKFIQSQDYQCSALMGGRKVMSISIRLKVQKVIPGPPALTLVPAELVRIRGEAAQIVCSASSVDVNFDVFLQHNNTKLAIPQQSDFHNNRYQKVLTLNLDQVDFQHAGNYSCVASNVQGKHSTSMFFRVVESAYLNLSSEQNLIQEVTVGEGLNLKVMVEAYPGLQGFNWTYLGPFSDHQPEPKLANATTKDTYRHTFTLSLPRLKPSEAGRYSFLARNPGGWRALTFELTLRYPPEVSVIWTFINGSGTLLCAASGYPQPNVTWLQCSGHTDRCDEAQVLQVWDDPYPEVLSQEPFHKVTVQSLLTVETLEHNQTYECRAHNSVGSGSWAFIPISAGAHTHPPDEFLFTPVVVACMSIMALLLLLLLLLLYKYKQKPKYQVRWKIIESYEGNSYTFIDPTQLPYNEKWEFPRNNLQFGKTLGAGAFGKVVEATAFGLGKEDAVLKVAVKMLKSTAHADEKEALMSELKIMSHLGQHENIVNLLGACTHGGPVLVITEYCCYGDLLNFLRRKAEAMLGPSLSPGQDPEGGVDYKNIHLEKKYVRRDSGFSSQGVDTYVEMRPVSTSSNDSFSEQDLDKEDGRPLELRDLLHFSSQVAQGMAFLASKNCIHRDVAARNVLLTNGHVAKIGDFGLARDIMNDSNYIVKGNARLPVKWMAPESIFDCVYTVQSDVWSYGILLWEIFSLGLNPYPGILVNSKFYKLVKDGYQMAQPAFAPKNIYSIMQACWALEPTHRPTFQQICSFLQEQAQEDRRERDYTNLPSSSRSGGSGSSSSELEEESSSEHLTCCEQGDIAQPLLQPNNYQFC

| IC50 [nM] | Structure (SMILES) |
| --- | --- |
| < 10 | COc1cc(-n2c3c(c4ncnc(N)c42)CCC3)ccc1NC(=O)Cn1ccc(C2CC2)n1 |
| < 10 | COc1cc(-n2c3c(c4ncnc(N)c42)CCC3)ccc1NC(=O)Cc1nc(C(C)C)no1 |
| < 10 | COc1ccc(CC(=O)Nc2ccc(-n3c4c(c5ncnc(N)c53)CCC4)cc2OC)cc1F |
| 10 to 200 | COc1cc(-n2c3c(c4ncnc(N)c42)COC3)ccc1NC(=O)Cn1cc(C(F)(F)F)cn1 |
| > 200 | Nc1ncnc2c3c(n(-c4ccc(NC(=O)Cc5ccccc5)c(F)c4)c12)CCC3 |
| 10 to 200 | Nc1ncnc2c3c(n(-c4ccc(NC(=O)CCc5ccccc5)cc4)c12)CCC3 |
| > 200 | COc1cc(-n2c3c(c4ncnc(N)c42)COC3)ccc1NC(=O)Cn1nc(C)cc1C(F)(F)F |
| > 200 | Nc1ncnc2c3c(n(-c4ccc(NC(=O)Cc5ccccc5)c(C(F)(F)F)c4)c12)CCC3 |
| < 10 | COc1cc(-n2c3c(c4ncnc(N)c42)CCC3)ccc1NC(=O)Cc1cc(C(F)F)on1 |
| < 10 | COc1cc(-n2c3c(c4ncnc(N)c42)CCC3)ccc1NC(=O)Cc1nnn(C(C)(C)C)n1 |
| 10 to 200 | COc1cc(-n2c3c(c4ncnc(N)c42)COC3)ccc1NC(=O)Cc1csc(C(C)C)n1 |
| < 10 | Nc1ncnc2c3c(n(-c4ccc(NC(=O)Cn5ccc(C6CC6)n5)cc4)c12)CCC3 |
| 10 to 200 | Cc1cnc(CC(=O)Nc2ccc(-n3c4c(c5ncnc(N)c53)CCC4)cc2)c(F)c1 |
| < 10 | COc1cc(-n2c3c(c4ncnc(N)c42)CCC3)ccc1NC(=O)Cc1ccc2c(ccn2C)c1 |
| 10 to 200 | Nc1ncnc2c3c(n(-c4ccc(NC(=O)CCCN5CCOCC5)cc4)c12)CCC3 |
| 10 to 200 | Nc1ncnc2c3c(n(-c4ccc(NC(=O)Cc5ccc(C(F)(F)F)nn5)cc4)c12)COC3 |
| < 10 | COc1cc(-n2c3c(c4ncnc(N)c42)CCC3)ccc1CC(=O)Nc1ccc(C(F)(F)F)cn1 |
| 10 to 200 | Nc1ncnc2c3c(n(-c4ccc(CC(=O)NC5CCCCC5)cc4)c12)CCC3 |
| < 10 | COc1cc(-n2c3c(c4ncnc(N)c42)CCC3)ccc1CC(=O)Nc1ccc2nonc2c1 |
| < 10 | COc1cc(-n2c3c(c4ncnc(N)c42)COC3)ccc1NC(=O)Cc1ccccc1 |
| 10 to 200 | COc1cc(-n2c3c(c4ncnc(N)c42)COC3)ccc1NC(=O)Cn1ncc2ccccc21 |
| < 10 | COc1cc(-n2c3c(c4ncnc(N)c42)CCC3)ccc1NC(=O)Cc1cnc2c(ccn2C)c1 |
| < 10 | COc1cc(-n2c3c(c4ncnc(N)c42)COC3)ccc1NC(=O)Cc1ccc(C)cc1F |

| IC50 [nM] | Structure (SMILES) |
| --- | --- |
| < 10 | Cn1nc(C(F)(F)F)cc1CC(=O)Nc1ccc(-n2c3c(c4ncnc(N)c42)CCC3)cc1 |
| > 200 | Nc1ncnc2c3c(n(-c4ccc(NC(=O)Cc5ccncc5)cc4)c12)CCC3 |
| > 200 | COc1cc(-n2c3c(c4ncnc(N)c42)CCC3)ccc1CC(=O)Nc1ccn(C)n1 |
| 10 to 200 | COc1cc(-n2c3c(c4ncnc(N)c42)COC3)ccc1NC(=O)Cc1csc(C(C)(C)C)n1 |
| 10 to 200 | COc1cc(-n2c3c(c4ncnc(N)c42)CCC3)ccc1NC(=O)Cc1ccc(Cl)c(C(F)(F)F)c1 |
| > 200 | Nc1ncnc2c3c(n(-c4ccc(NC(=O)Cc5nnc(C(F)(F)F)o5)cc4)c12)CCC3 |
| < 10 | Cn1ccc2cc(CC(=O)Nc3ccc(-n4c5c(c6ncnc(N)c64)CCC5)cc3)cnc21 |
| 10 to 200 | COc1cc(-n2c3c(c4ncnc(N)c42)CCC3)ccc1NC(=O)CN1C(=O)COc2ccccc21 |
| 10 to 200 | COc1ccc(CC(=O)Nc2ccc(-n3c4c(c5ncnc(N)c53)COC4)cc2OC)cn1 |
| > 200 | Cc1ccc(F)c(CC(=O)Nc2ccc(-n3c4c(c5ncnc(N)c53)COC4)cc2F)c1 |
| < 10 | COc1cc(-n2c3c(c4ncnc(N)c42)CCC3)ccc1NC(=O)Cc1cc(C(F)(F)F)no1 |
| < 10 | COc1cc(CC(=O)Nc2ccc(-n3c4c(c5ncnc(N)c53)CCC4)cc2OC)ccc1C |
| < 10 | Nc1ncnc2c3c(n(-c4ccc(NC(=O)Cc5cc(C(F)(F)F)on5)cc4)c12)CCC3 |
| > 200 | Nc1ncnc2c3c(n(-c4ccc(NC(=O)Cc5ccc(Cl)nn5)cc4)c12)COC3 |
| > 200 | Nc1ncnc2c3c(n(-c4ccc(CC(=O)Nc5cccnc5)cc4)c12)CCC3 |
| 10 to 200 | COc1cc(-n2c3c(c4ncnc(N)c42)CCC3)ccc1NC(=O)Cn1nc(C)cc1C |
| < 10 | Nc1ncnc2c3c(n(-c4ccc(NC(=O)Cn5cnc(C(F)(F)F)c5)cc4)c12)CCC3 |
| < 10 | COc1cc(-n2c3c(c4ncnc(N)c42)COC3)ccc1NC(=O)Cc1ccc(Cl)c(C(F)(F)F)c1 |
| 10 to 200 | CNC(=O)c1cccc(NC(=O)Cc2ccc(-n3c4c(c5ncnc(N)c53)CCC4)cc2OC)c1 |
| 10 to 200 | COc1cc(-n2c3c(c4ncnc(N)c42)CCC3)ccc1NC(=O)Cc1cc(C(F)(F)F)ccc1F |
| 10 to 200 | COc1cc(CC(=O)Nc2ccc(-n3c4c(c5ncnc(N)c53)COC4)cc2OC)cc(OC)c1 |
| 10 to 200 | COc1cc(-n2c3c(c4ncnc(N)c42)COC3)ccc1NC(=O)Cc1cc(C(F)(F)F)ccc1F |
| 10 to 200 | COc1cc(-n2c3c(c4ncnc(N)c42)COC3)ccc1NC(=O)Cn1cc(C(C)(C)C)cn1 |

| IC50 [nM] | Structure (SMILES) |
| --- | --- |
| 10 to 200 | COc1cc(-n2c3c(c4ncnc(N)c42)CCC3)ccc1NC(=O)Cc1ccccc1 |
| 10 to 200 | Nc1ncnc2c3c(n(-c4ccc(NC(=O)Cn5cc(C(F)(F)F)cn5)cc4)c12)COC3 |
| > 200 | COc1cc(-n2c3c(c4ncnc(N)c42)COC3)ccc1NC(=O)CN1C(=O)COc2ccccc21 |
| < 10 | COc1ccc(NC(=O)Cc2ccc(-n3c4c(c5ncnc(N)c53)CCC4)cc2OC)nn1 |
| < 10 | COc1cc(-n2c3c(c4ncnc(N)c42)CCC3)ccc1CC(=O)Nc1ccc2c(c1)COC2(C)C |
| < 10 | COc1ccc(NC(=O)Cc2ccc(-n3c4c(c5ncnc(N)c53)CCC4)cc2OC)c(F)c1 |
| > 200 | COc1ccc(CC(=O)Nc2ccc(-n3c4c(c5ncnc(N)c53)COC4)cc2F)c(F)c1 |
| < 10 | COc1cc(-n2c3c(c4ncnc(N)c42)CCC3)ccc1NC(=O)Cc1ccc(C(F)(F)F)nc1 |
| 10 to 200 | Nc1ncnc2c3c(n(-c4ccc(NC(=O)Cc5cnn(C(F)F)c5)cc4)c12)CCC3 |
| < 10 | COc1cc(-n2c3c(c4ncnc(N)c42)COC3)ccc1NC(=O)Cc1ccc(C)c(F)c1 |
| 10 to 200 | Cn1cc(CCC(=O)Nc2ccc(-n3c4c(c5ncnc(N)c53)CCC4)cc2)c2ccccc21 |
| 10 to 200 | Cn1cc(CC(=O)Nc2ccc(-n3c4c(c5ncnc(N)c53)CCC4)cc2)cn1 |
| 10 to 200 | COc1cc(-n2c3c(c4ncnc(N)c42)CCC3)ccc1NC(=O)Cc1ncc(C)cc1F |
| 10 to 200 | COc1cc(-n2c3c(c4ncnc(N)c42)COC3)ccc1NC(=O)Cn1ccc(C(C)(C)C)n1 |
| 32 | COc1cc(-n2c3c(c4ncnc(N)c42)COC3)ccc1NC(=O)Cc1cnc2c(ccn2C)c1 |
| 10 to 200 | COc1ccc(CC(=O)Nc2ccc(-n3c4c(c5ncnc(N)c53)COC4)cc2OC)cc1F |
| < 10 | COc1cc(-n2c3c(c4ncnc(N)c42)COC3)ccc1CC(=O)Nc1ccc(C(F)(F)F)nc1 |
| 10 to 200 | Cn1cc(C(=O)Nc2ccc(-n3c4c(c5ncnc(N)c53)CCC4)cc2)c2ccccc21 |
| 10 to 200 | Nc1ncnc2c3c(n(-c4ccc(NC(=O)Cc5ccc6c(c5)OCO6)cc4)c12)CCC3 |
| 14 | Nc1ncnc2c3c(n(-c4ccc(NC(=O)Cc5ccc(Cl)c(C(F)(F)F)c5)cc4)c12)CCC3 |
| 10 to 200 | Cc1ccc(CC(=O)Nc2ccc(-n3c4c(c5ncnc(N)c53)COC4)cc2)cc1F |
| 10 to 200 | COc1cc(-n2c3c(c4ncnc(N)c42)CCC3)ccc1NC(=O)Cn1nc(C)cc1C(F)(F)F |
| 10 to 200 | Nc1ncnc2c3c(n(-c4ccc(NC(=O)Cc5cnn(-c6ccccc6)c5)cc4)c12)CCC3 |

| IC50 [nM] | Structure (SMILES) |
| --- | --- |
| < 10 | COc1cc(-n2c3c(c4ncnc(N)c42)CCC3)ccc1NC(=O)Cc1ccccn1 |
| > 200 | Nc1ncnc2c3c(n(-c4ccc(NC(=O)[C@@H](N)c5ccccc5)cc4)c12)CCC3 |
| < 10 | COc1ccc(CC(=O)Nc2ccc(-n3c4c(c5ncnc(N)c53)CCC4)cc2OC)cc1C |
| < 10 | Cn1ncc(CC(=O)Nc2ccc(-n3c4c(c5ncnc(N)c53)CCC4)cc2)c1C(F)(F)F |
| 10 to 200 | COc1cc(-n2c3c(c4ncnc(N)c42)CCC3)ccc1NC(=O)Cn1cc(C(F)(F)F)nc1C |
| > 200 | COc1cc(-n2c3c(c4ncnc(N)c42)COC3)ccc1CC(=O)Nc1ccccc1 |
| > 200 | Nc1ncnc2c3c(n(-c4ccc(NC(=O)Cc5ccccc5)c(Cl)c4)c12)CCC3 |
| > 200 | Nc1ncnc2c3c(n(-c4ccc(NC(=O)Cn5ccnc5)cc4)c12)CCC3 |
| 10 to 200 | COc1cc(-n2c3c(c4ncnc(N)c42)CCC3)ccc1CC(=O)Nc1cnc(C(F)(F)F)nc1 |
| 10 to 200 | COc1cc(-n2c3c(c4ncnc(N)c42)CCC3)ccc1NC(=O)Cc1cc(C)no1 |
| > 200 | Nc1ncnc2c3c(n(-c4ccc(NC(=O)Cc5ccccc5)nc4)c12)CCC3 |
| > 200 | COc1cc(-n2c3c(c4ncnc(N)c42)CCC3)ccc1NC(=O)Cc1cnccn1 |
| < 10 | COc1cc(-n2c3c(c4ncnc(N)c42)CCC3)ccc1CC(=O)Nc1nc(C(F)(F)F)cs1 |
| > 200 | Nc1ncnc2c3c(n(-c4ccc(NC(=O)[C@@H](N)Cc5ccccc5)cc4)c12)CCC3 |
| 10 to 200 | COc1cc(-n2c3c(c4ncnc(N)c42)COC3)ccc1NC(=O)Cc1ccc(C(F)(F)F)nn1 |
| < 10 | COc1cc(-n2c3c(c4ncnc(N)c42)CCC3)ccc1NC(=O)Cc1ccc(C)c(F)c1 |
| < 10 | COc1cc(NC(=O)Cc2ccc(-n3c4c(c5ncnc(N)c53)CCC4)cc2OC)cc(C(F)(F)F)c1 |
| 9 | COc1cc(-n2c3c(c4ncnc(N)c42)CCC3)ccc1NC(=O)Cc1ccc(C(F)(F)F)nn1 |
| > 200 | COc1cc(-n2c3c(c4ncnc(N)c42)CCC3)ccc1NC(=O)Cc1ccc2c(c1)CN(C)C2=O |
| > 200 | CN1CCN(CC(=O)Nc2ccc(-n3c4c(c5ncnc(N)c53)CCC4)cc2)CC1 |
| 10 to 200 | COc1cc(-n2c3c(c4ncnc(N)c42)CCC3)ccc1NC(=O)Cc1nccc(C(F)(F)F)n1 |
| 10 to 200 | COc1cccc(CC(=O)Nc2ccc(-n3c4c(c5ncnc(N)c53)CCC4)cc2)n1 |
| > 200 | COc1cc(-n2c3c(c4ncnc(N)c42)COC3)ccc1NC(=O)CN1CCOc2ccccc21 |
